{
  "source": "patent US20070117770A1",
  "about": "“Human ribosomal DNA (rDNA) and ribosomal RNA (rRNA) nucleic acids and uses thereof” (Cylene Pharmaceuticals, Inc., priority 2005, published 2007)",
  "key": {"JNK2α2(h)": {"target": "JNK2α2(h) (Homo sapiens, UniProt P45984)", "sequence (P45984 whole entry)": "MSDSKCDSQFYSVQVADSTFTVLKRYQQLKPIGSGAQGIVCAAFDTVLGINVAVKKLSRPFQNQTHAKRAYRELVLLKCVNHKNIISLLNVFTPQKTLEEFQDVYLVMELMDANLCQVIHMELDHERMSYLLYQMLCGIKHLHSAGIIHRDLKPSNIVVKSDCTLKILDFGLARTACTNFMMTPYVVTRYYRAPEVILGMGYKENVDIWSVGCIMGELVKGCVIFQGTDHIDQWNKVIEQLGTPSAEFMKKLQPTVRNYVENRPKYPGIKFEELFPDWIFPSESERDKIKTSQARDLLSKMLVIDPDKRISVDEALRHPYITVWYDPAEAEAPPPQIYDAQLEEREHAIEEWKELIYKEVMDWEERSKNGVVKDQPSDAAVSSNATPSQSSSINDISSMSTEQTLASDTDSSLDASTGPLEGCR", "assay": "Protein kinase inhibition assay", "type": "biochemical", "settings": "read-out: percent residual activity of JNK2α2(h)", "protocol": "(§1) Certain compounds were tested for activity in protein kinase inhibition assays. All substrates were dissolved and diluted to working stocks in de-ionized water, apart from histone H1 (10× working stock in 20 mM MOPS pH 7.0), PDKtide (10× working stock in 50 mM Tris pH 7.0) ATF2 (which is typically stored at a 20× working stock in 50 mM Tris pH 7.5, 150 mM NaCl, 0.1 mM EGTA, 0.03% Brij-35, 50% glycerol, 1 mM benzamidine, 0.2 mM PMSF and 0.1% R-mercaptoethanol), KKLNRTLSFAEPG (SEQ ID NO:203) and RRRLSFAEPG (SEQ ID NO:204) (50 mM HEPES pH 7.4) and GGEEEEYFELVKKKK (SEQ ID NO:205) (20 mM MOPS pH 7.0). All kinases were pre-diluted to a 10× working concentration prior to addition into the assay. The composition of the dilution buffer for each kinase is detailed below.\n(§2) In a final reaction volume of 25 μl, JNK2α2 (h) (5-10 mU) is incubated with 50 mM Tris pH 7.5, 0.1 nM EGTA, 0.1% R-mercaptoethanol, 3 μM ATF2, 10 mM MgAcetate and [gamma-33P-ATP] (specific activity approx. 500 cpm/pmol, concentration as required). The reaction is initiated by the addition of the MgATP mix. After incubation for 40 minutes at room temperature, the reaction is stopped by the addition of 5 μl of a 3% phosphoric acid solution. 10 μl of the reaction is then spotted onto a P30 filtermat and washed three times for 5 minutes in 75 mM phosphoric acid and once in methanol prior to drying and scintillation counting."}, "IGF-1R(h)": {"target": "IGF-1R(h) (Homo sapiens, UniProt P08069)", "sequence (P08069 31-1367)": "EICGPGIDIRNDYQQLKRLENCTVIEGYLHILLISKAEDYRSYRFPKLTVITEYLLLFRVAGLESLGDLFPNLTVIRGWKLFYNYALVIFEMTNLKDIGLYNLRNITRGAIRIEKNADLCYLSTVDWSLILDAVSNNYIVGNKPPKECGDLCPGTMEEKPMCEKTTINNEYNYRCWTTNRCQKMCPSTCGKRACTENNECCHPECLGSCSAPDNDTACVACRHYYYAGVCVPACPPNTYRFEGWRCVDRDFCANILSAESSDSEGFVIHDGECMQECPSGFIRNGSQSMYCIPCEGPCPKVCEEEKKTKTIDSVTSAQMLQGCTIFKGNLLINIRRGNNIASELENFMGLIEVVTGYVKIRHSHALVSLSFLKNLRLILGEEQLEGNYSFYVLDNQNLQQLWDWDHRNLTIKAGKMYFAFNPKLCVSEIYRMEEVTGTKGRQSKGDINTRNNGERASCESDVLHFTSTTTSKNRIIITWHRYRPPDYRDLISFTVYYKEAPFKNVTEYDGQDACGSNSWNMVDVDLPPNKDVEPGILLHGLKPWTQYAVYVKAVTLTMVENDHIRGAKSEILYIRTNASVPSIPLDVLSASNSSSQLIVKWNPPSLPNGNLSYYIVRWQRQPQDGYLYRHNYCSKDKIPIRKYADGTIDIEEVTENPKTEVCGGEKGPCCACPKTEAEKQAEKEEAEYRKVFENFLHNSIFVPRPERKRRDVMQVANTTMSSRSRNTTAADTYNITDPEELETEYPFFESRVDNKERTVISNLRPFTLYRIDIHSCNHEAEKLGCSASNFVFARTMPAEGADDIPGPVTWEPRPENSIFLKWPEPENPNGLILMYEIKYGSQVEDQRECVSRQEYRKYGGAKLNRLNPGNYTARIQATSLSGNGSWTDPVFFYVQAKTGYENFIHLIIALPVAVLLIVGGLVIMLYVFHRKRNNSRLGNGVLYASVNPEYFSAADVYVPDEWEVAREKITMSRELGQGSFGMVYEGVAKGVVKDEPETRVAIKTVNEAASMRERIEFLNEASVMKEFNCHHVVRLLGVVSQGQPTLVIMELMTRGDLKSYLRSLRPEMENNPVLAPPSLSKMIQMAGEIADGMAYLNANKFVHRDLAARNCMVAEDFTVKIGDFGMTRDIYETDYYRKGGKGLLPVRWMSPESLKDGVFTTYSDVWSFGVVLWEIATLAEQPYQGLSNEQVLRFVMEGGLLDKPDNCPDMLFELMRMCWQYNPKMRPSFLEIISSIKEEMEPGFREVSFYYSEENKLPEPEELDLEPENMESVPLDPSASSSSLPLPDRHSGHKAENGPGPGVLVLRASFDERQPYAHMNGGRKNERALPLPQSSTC", "assay": "Protein kinase inhibition assay", "type": "biochemical", "settings": "read-out: percent residual activity of IGF-1R(h)", "protocol": "as §1\nIn a final reaction volume of 25 μl, IGF-1R (h) (5-10 mU) is incubated with 50 mM Tris pH 7.5, 0.1 mM EGTA, 0.1 mM Na3VO4, 0.1% R-mercaptoethanol, 250 μM KKKSPGEYVNIEFG (SEQ ID NO:207), 10 mM MnCl2, 10 mM MgAcetate and [gamma-33P-ATP] (specific activity approx. 500 cpm/pmol, concentration as required). The reaction is initiated by the addition of the MgATP mix. After incubation for 40 minutes at room temperature, the reaction is stopped by the addition of 5 μl of a 3% phosphoric acid solution. […]"}, "CDK3/cyclinE(h)": {"target": "CDK3/cyclinE(h) (Homo sapiens, UniProt Q00526)", "sequence (Q00526 whole entry)": "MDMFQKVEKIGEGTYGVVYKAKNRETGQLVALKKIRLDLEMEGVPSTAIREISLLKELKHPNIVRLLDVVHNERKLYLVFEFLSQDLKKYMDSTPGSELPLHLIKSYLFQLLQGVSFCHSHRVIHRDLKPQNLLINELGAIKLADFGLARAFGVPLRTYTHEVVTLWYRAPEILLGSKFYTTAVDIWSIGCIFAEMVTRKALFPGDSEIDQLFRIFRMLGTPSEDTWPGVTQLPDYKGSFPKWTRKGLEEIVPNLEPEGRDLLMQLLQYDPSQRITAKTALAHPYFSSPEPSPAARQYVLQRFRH", "sequence (P24864 whole entry partner)": "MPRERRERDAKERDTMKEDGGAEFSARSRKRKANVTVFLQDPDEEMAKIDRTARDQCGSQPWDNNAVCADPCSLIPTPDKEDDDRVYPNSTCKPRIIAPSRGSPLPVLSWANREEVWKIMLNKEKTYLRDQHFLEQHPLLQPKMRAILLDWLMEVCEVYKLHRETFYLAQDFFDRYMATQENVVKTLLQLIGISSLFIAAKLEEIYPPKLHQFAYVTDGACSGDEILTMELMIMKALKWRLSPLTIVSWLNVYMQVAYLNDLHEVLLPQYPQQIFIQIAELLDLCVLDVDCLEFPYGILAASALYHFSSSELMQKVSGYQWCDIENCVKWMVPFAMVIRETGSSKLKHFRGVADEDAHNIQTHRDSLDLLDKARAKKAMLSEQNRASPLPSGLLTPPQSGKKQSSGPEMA", "assay": "Protein kinase inhibition assay", "type": "biochemical", "settings": "read-out: percent residual activity of CDK3/cyclinE(h)", "protocol": "as §1\nas §2, with “μl, CDK3/cyclinE” for “μl, JNK2α2”, “with 8” for “with 50”, “mM MOPS” for “mM Tris”, “pH 7.0, 0.2 mM EDTA,” for “pH 7.5,”, “0.1 mg/ml histone H1,” for “0.1 nM EGTA, 0.1% R-mercaptoethanol, 3 μM ATF2,”"}, "MKK6(h)": {"target": "MKK6(h) (Homo sapiens, UniProt P52564)", "sequence (P52564 whole entry)": "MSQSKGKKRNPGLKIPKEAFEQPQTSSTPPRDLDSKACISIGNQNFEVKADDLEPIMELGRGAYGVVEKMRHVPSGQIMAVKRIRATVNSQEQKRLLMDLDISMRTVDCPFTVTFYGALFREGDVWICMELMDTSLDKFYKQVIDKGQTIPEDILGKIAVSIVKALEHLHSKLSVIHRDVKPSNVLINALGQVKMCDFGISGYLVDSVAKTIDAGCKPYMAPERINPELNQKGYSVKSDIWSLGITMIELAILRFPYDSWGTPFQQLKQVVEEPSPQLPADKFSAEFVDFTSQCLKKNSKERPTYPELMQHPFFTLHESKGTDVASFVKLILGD", "assay": "Protein kinase inhibition assay", "type": "biochemical", "settings": "read-out: percent residual activity of MKK6(h)", "protocol": "as §1\nThe reaction is initiated by the addition of the MgATP. After incubation for 40 minutes at room temperature, 5 μl of this incubation mix is used to initiate a SAPK2a (h) assay, which is described on page 18 of this book."}, "nucleolin/cMyc QP DNA": {"target": "T1, nucleolin/cMyc QP DNA (Homo sapiens, UniProt P19338)", "T1 construct": "without the N-terminal acidic stretches domain", "T1 sequence (P19338 284-710 limits assumed)": "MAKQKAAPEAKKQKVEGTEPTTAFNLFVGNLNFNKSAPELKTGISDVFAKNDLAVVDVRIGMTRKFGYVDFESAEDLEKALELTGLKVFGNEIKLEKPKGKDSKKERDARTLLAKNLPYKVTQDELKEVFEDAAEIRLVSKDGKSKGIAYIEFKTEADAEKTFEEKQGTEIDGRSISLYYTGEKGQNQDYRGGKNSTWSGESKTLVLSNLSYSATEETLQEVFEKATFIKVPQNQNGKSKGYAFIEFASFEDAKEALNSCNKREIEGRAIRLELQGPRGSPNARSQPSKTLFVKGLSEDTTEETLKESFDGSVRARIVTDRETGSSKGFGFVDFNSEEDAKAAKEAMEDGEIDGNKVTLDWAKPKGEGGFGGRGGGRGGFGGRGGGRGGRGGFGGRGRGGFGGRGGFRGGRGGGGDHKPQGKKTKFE", "assay": "EMSA, nucleolin/QP ligand interaction", "type": "binding", "settings": "nucleolin ~250 nM, 32P-labeled ligand 10 or 250 nM, 30 minutes (FIG. 1, FIG. 2)", "protocol": "The following assays assessed effects of compounds on interactions between nucleolin and nucleic acid ligands capable of forming quadruplex (QP) and hairpin (HP) secondary structures. Nucleic acid ligands tested were a cMyc QP DNA having nucleotide sequence 5′-[…]-3′ (SEQ ID NO: 176) and a HP pre-rRNA region to which nucleolin binds, having the sequence 5′-[…]-3′ (SEQ ID NO: 177). In the assays, recombinant nucleolin (˜250 nM), which was fused to maltose binding protein and had the sequence under accession number NM_005381 without the N-terminal acidic stretches domain, was incubated with each of the two ^32P-labeled nucleic acid ligands (10 or 250 nM). Nucleolin and the nucleic acid ligand were incubated in the presence or absence of a test compound of Formula A-1, B-1, C-6 or C-7 in an incubation buffer (12.5 mM Tris, pH 7.6, 60 mM KCl, 1 mM MgCl2, 0.1 mM EDTA, 1 mM DTT, 5% glycerol, 0.1 mg/ml BSA) for 30 minutes at room temperature. Structures for A-1 and B-1 are shown above and structures for C-6 and C-7 are shown hereafter: [drawing 17] The resulting complexes were separated on a 6% DNA retardation gel using 0.5× TBE with 20 mM KCl as a running buffer (i.e., electrophoresis mobility shift assay (EMSA))."}, "Rsk3(h)": {"target": "Rsk3(h) (Homo sapiens, UniProt Q15349)", "sequence (Q15349 whole entry)": "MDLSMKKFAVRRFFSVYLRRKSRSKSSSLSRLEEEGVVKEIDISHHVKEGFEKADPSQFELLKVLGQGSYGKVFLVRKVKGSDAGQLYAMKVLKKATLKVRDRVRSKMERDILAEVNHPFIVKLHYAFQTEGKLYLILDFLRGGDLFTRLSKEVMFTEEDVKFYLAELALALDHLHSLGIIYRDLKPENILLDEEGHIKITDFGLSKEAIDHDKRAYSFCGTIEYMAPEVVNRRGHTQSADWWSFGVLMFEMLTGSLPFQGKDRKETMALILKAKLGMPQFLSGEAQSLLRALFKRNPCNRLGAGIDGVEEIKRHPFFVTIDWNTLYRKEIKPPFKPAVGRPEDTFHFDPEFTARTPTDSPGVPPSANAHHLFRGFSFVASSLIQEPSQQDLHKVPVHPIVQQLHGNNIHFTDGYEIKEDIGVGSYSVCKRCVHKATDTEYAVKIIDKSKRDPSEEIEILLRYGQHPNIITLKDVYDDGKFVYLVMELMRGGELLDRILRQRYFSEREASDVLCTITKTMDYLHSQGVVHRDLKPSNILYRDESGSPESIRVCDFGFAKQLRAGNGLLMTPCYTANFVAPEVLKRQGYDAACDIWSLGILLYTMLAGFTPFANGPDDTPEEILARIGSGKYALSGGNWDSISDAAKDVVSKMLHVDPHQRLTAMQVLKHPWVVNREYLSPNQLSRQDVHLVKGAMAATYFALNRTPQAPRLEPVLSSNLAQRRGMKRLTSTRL", "assay": "Protein kinase inhibition assay", "type": "biochemical", "settings": "read-out: percent residual activity of Rsk3(h)", "protocol": "as §1\nas §2, with “μl, Rsk3” for “μl, JNK2α2”, “with 8” for “with 50”, “mM MOPS” for “mM Tris”, “pH 7.0, 0.2 mM EDTA, 30” for “pH 7.5, 0.1 nM EGTA, 0.1% R-mercaptoethanol, 3”, “μM KKKNRTLSVA (SEQ ID NO:212),” for “μM ATF2,”"}},
  "data": [
    {"smiles": "CN1CCCC1CCNC(=O)c1cn2c3c(c(N4CCC(c5cnccn5)C4)c(F)cc3c1=O)Oc1cc3ccccc3cc1-2", "note": "(stereo not drawn) [Compound A-1]", "values": [
      {"measurement": "remaining activity at 2.5 µM", "setting": "JNK2α2(h)", "result": 101, "unit": "%"},
      {"measurement": "remaining activity at 2.5 µM", "setting": "IGF-1R(h)", "result": 103, "unit": "%"},
      {"measurement": "remaining activity at 2.5 µM", "setting": "CDK3/cyclinE(h)", "result": 93, "unit": "%"},
      {"measurement": "remaining activity at 2.5 µM", "setting": "MKK6(h)", "result": 100, "unit": "%"},
      {"measurement": "interference with the nucleolin/QP ligand interaction", "setting": "nucleolin/cMyc QP DNA", "result": "interfered with the nucleolin/QP ligand interaction in a concentration dependent manner"},
      {"measurement": "remaining activity at 2.5 µM", "setting": "Rsk3(h)", "result": 89, "unit": "%"}
    ]},
    {"smiles": "CC(=O)N1CCN(c2ccc3c(=O)c(C(=O)NCCN4CCCC4)c4n(C)c5ccccc5n4c3n2)CC1", "note": "[Compound B-1]", "values": [
      {"measurement": "remaining activity at 2.5 µM", "setting": "JNK2α2(h)", "result": 106, "unit": "%"},
      {"measurement": "remaining activity at 2.5 µM", "setting": "IGF-1R(h)", "result": 113, "unit": "%"},
      {"measurement": "remaining activity at 2.5 µM", "setting": "CDK3/cyclinE(h)", "result": 103, "unit": "%"},
      {"measurement": "remaining activity at 2.5 µM", "setting": "MKK6(h)", "result": 90, "unit": "%"},
      {"measurement": "interference with the nucleolin/QP ligand interaction", "setting": "nucleolin/cMyc QP DNA", "result": "interfered with the nucleolin/QP ligand interaction in a concentration dependent manner"},
      {"measurement": "remaining activity at 2.5 µM", "setting": "Rsk3(h)", "result": 107, "unit": "%"}
    ]}
  ]
}
